Results: patent US11793803B2, “Particle and pharmaceutical composition comprising an insoluble camptothecin compound with double core-shell structure and method for manufacturing the same” (SN BIOSCIENCE INC., priority 2017, dated 2023)
In brackets after ≈: the same amount, converted by molar mass.

Experiment: Solubility in different solvents (supersaturated solution, filtrate analysed by HPLC)
Details: for solubility at 30 min: thermodynamic from solid
Method: A supersaturated solution was prepared by adding 20 mg of the hydrophobic camptothecin compound (camptothecin or SN-38) to 5 ml of ethanol, acetonitrile, acetone, ethyl acetate, chloroform dimethyl sulfoxide, or distilled water, followed by ultrasonic treatment for 30 minutes. The prepared supersaturated solution was filtered through a 0.45-μm filter, and a filtrate was properly diluted, followed by HPLC analysis.
The prepared supersaturated solution was filtered through a 0.45-μm filter, and a filtrate was properly diluted, followed by HPLC analysis.
HPLC (Agilent 1200 Series, USA) conditions were as follows. The column was CapcellPak C8 (5 m, 4.6 mm×25 cm, Shiseido); the mobile phase was a mixed solvent of methanol:acetonitrile:buffer (2.8 g/L sodium dihydrogenphosphate, 1.8 g/L 1-octanesulfonate aqueous solution)=17:24:59 (v/v); the flow rate was 1.5 mL/min; the measurement wavelength was UV 255 nm; and the sample injection amount was 15 μL.

Structure (SMILES)	solubility at 30 min (acetonitrile, organic solvent or mixture) [µg/mL]	solubility at 30 min (chloroform, organic solvent or mixture) [µg/mL]	solubility at 30 min (dimethyl sulfoxide, organic solvent or mixture) [µg/mL]	solubility at 30 min (distilled water, water) [µg/mL]	solubility at 30 min (ethanol, organic solvent or mixture) [µg/mL]	solubility at 30 min (ethyl acetate, organic solvent or mixture) [µg/mL]	Solubility of hydrophobic camptothecin-based compound (Acetonitrile) [µg/mL]	Solubility of hydrophobic camptothecin-based compound (Chloroform) [µg/mL]	Solubility of hydrophobic camptothecin-based compound (Dimethyl sulfoxide) [µg/mL]	Solubility of hydrophobic camptothecin-based compound (Distilled water) [µg/mL]	Solubility of hydrophobic camptothecin-based compound (Ethanol) [µg/mL]	Solubility of hydrophobic camptothecin-based compound (Ethyl acetate) [µg/mL]
CC[C@@]1(O)C(=O)OCc2c1cc1n(c2=O)Cc2cc3ccccc3nc2-1 [Camptothecin, camptothecin]	101 (≈ 290 µM)	2 (≈ 5.74 µM)	3290 (≈ 9450 µM)	9 (≈ 25.8 µM)	149 (≈ 428 µM)	134 (≈ 385 µM)	–	–	–	–	–	–
CCc1c2c(nc3ccc(O)cc13)-c1cc3c(c(=O)n1C2)COC(=O)[C@]3(O)CC [SN-38, 7-ethyl-10-hydroxy-camptothecin]	–	–	–	–	–	–	402	9	2263	<1	779	78
